Measurements reported in patent publication US9637462B2, “Process for the preparation of N-iodoamides” (TECHNION RESEARCH & DEVELOPMENT FOUNDATION LIMITED, priority 2013, dated 2017).

Legend:
[1] = Distribution coefficient (K) of amides between water-immiscible organic solvent and water (recovery of amides from aqueous solution); type: physicochemical; conditions: 25° C., stirred 0.5 h
Method: A mixture of amide (weight of amide (W): 0.2-0.5 g), water (20-100 mL) and water immiscible organic solvent (the same volume as water) was stirred at 25° C. for 0.5 h. The organic layer was thoroughly separated, dried over Na2SO4, filtered and concentrated in vacuo to recover the amide. Distribution coefficient K was calculated according to the formula K=Wo/W−Wo, where Wo is weight of the recovered amide in g. Distribution coefficients of 3,5,5-trimethylhydantoin (3,5,5-TMH), 4,4-dimethyloxazolidin-2-one (DMO), 5,5-dimethylhydantoin (DMH) and succinimide in hexane, benzene, CCl4 and DCM are shown in Table 3.1.

[2] = shake-flask, equal volumes, gravimetric recovery from organic layer; conditions: 25 °C
[3] = PhH (benzene) / water (equal volumes)

| Compound | melting point | Distribution coefficient (K) ([1]; CCl4 / water (equal volumes)) | Distribution coefficient (K) ([1]; DCM / water (equal volumes)) | Distribution coefficient (K) [1, 3] | Distribution coefficient (K) ([1]; hexane / water (equal volumes)) | partition coefficient dichloromethane / water [2] |
| --- | --- | --- | --- | --- | --- | --- |
| CC1(C)COC(=O)N1I | 148 to 149 °C (dec.) | – | – | – | – | – |
| CN1C(=O)N(I)C(C)(C)C1=O [1-ITMH, 1-iodo-3,5,5-trimethylhydantoin] | 198 to 199 °C (dec.) | – | – | – | – | – |
| CN1C(=O)NC(C)(C)C1=O [3,5,5-TMH, 3,5,5-trimethylhydantoin] | – | 0.1≦ | 1.6 | 0.1≦ | 0.1≦ | 1.6 mass ratio (equal phase volumes) |
| CN1C(=O)N(I)C(=O)C1(C)C [3-ITMH, 3-iodo-1,5,5-trimethylhydantoin] | 213 to 214 °C (dec.) | – | – | – | – | – |
| CC1(C)NC(=O)NC1=O [DMH, 5,5-dimethylhydantoin, reference compound] | – | 0.1≦ | 0.1≦ | 0.1≦ | 0.1≦ | – |
| CC1(C)COC(=O)N1 [DMO, 4,4-dimethyloxazolidin-2-one] | – | 0.1≦ | 0.5 | 0.1≦ | 0.1≦ | 0.5 mass ratio (equal phase volumes) |
| O=C1CCC(=O)N1 [succinimide, reference compound] | – | 0.1≦ | 0.1≦ | 0.1≦ | 0.1≦ | – |
